Activity calls are given as the source filed them. The calls are words filed in the database; no cut-off is given here.
Assays:
MDA-MB-231 = test: Antiproliferative activity against human MDA-MB-231 cells assessed as inhibition of cell proliferation incubated for 72 hrs by MTT assay; type: functional, cell-based; details: MDA-MB-231, 72 h
MCF7 [1] = test: Antiproliferative activity against human MCF-7 cells assessed as inhibition of cell proliferation incubated for 72 hrs by MTT assay; type: functional, cell-based; details: MCF7, 72 h
MDA-MB-468 = test: Anticancer activity against human MDA-MB-468 cells assessed as inhibition of cell proliferation measured after 72 hrs by MTT assay; type: functional, cell-based; details: MDA-MB-468, 72 h
[2] = Toxicity in BALB/c mouse assessed as death at 40 mg/kg, ip administered daily for 12 days; type: organism-based; details: in vivo, 288 h, time 12 day
4T1 [3] = test: Antitumor activity against female BALB/c mouse xenografted with 4T1 cells assessed as reduction on tumor weight at 40 mg/kg, ip administered daily for 12 days; type: functional, organism-based; details: time 12.0 day
[4] = Cmax in rat at 15 mg/kg, ip measured after 8 hrs; type: ADME, organism-based; set-up: time 8 hrs, dose 15 mg/kg, route ip; details: in vivo
[5] = AUC in rat at 15 mg/kg, ip measured after 8 hrs; type: ADME, organism-based; set-up: dose 15 mg/kg, time 8 hrs, route ip; details: in vivo
[6] = Half life in rat at 15 mg/kg, ip measured after 8 hrs; type: ADME, organism-based; details: in vivo
[7] = molecular target: T1, Protein cereblon/Heat shock protein HSP 90-alpha/Heat shock protein HSP 90-beta (Homo sapiens, UniProt P07900+P08238+Q96SW2); test: Protac activity at CRBN/HSP90 in human MCF7 cells assessed as reduction in HSP90 mRNA expression level at 2 uM followed by cycloheximide addition measured upto 12 hrs by qRT-PCR analysis; type: cell-based
MCF7 [8] = test: Anticancer activity against human MCF7 cells assessed as inhibition of colony formation at 2 to 10 uM measured after 48 hrs by crystal violet staining based assay; type: functional, cell-based; details: dose 2-10 µM, DDE = dose-dependent effect
[9] = molecular target: T1, Protein cereblon/Heat shock protein HSP 90-alpha/Heat shock protein HSP 90-beta; test: Protac activity at CRBN/HSP90 in human MCF7 cells assessed as reduction in HSP90 protein expression level at 2 uM measured after 6 hrs by western blot analysis; type: cell-based
[10] = molecular target: T1, Protein cereblon/Heat shock protein HSP 90-alpha/Heat shock protein HSP 90-beta; test: Protac activity at CRBN/HSP90 in human MCF7 cells assessed as reduction in HSP90 protein expression level at 2 uM followed by cycloheximide addition measured upto 12 hrs by western blot analysis; type: cell-based
[11] = molecular target: T1, Protein cereblon/Heat shock protein HSP 90-alpha/Heat shock protein HSP 90-beta; test: Protac activity at CRBN/HSP90 in human MCF7 cells assessed as maximum degradation of HSP90 measured after 6 hrs by western blot analysis relative to control; type: cell-based
[12] = molecular target: T1, Protein cereblon/Heat shock protein HSP 90-alpha/Heat shock protein HSP 90-beta; test: Protac activity at CRBN/HSP90 in human MCF7 cells assessed as reduction in AKT protein expression level at 2 uM measured after 6 hrs by western blot analysis; type: cell-based
4T1 [13] = test: Anticancer activity against mouse 4T1 cells assessed as inhibition of cell proliferation measured after 72 hrs by MTT assay; type: functional, cell-based; details: 4T1, 72 h
[14] = AUCinfinity in rat at 15 mg/kg, ip measured after 8 hrs; type: ADME, organism-based; set-up: dose 15 mg/kg, time 8 hrs, route ip; details: in vivo
[15] = Tmax in rat at 15 mg/kg, ip measured after 8 hrs; type: ADME, organism-based; details: in vivo
[16] = Toxicity in BALB/c mouse assessed as body weight loss at 40 mg/kg, ip administered daily for 12 days measured once every 3 days; type: organism-based; details: in vivo, 288 h, time 12 day
[17] = molecular target: T1, Protein cereblon/Heat shock protein HSP 90-alpha/Heat shock protein HSP 90-beta; test: Protac activity at CRBN/HSP90 in human MCF7 cells assessed as reduction in p53 protein expression level at 2 uM measured after 6 hrs by western blot analysis; type: cell-based
Heat shock protein HSP90 = Heat shock protein HSP90 (Homo sapiens, UniProt P07900+P08238); test: Binding affinity to HSP90 (unknown origin) upto 250 uM by BLI assay; type: protein assay
[18] = molecular target: T1, Protein cereblon/Heat shock protein HSP 90-alpha/Heat shock protein HSP 90-beta; test: Protac activity at CRBN/HSP90 in human MCF7 cells assessed as HSP90 degradation measured after 6 hrs by western blot analysis; type: cell-based
4T1 [19] = test: Antitumor activity against female BALB/c mouse xenografted with 4T1 cells assessed as reduction on tumor formation at 40 mg/kg, ip administered daily for 12 days; type: functional, organism-based; details: time 12.0 day
4T1 [20] = test: Antitumor activity against female BALB/c mouse xenografted with 4T1 cells assessed as tumor growth inhibition at 40 mg/kg, ip administered daily for 12 days relative to control; type: functional; details: 4T1, 288 h, time 12 day, read-out: TGI
[21] = molecular target: Heat shock protein HSP 90-alpha (Homo sapiens) (UniProt P07900); test: Degradation of HSP90alpha in human MCF7 cells at 2 uM measured after 6 hrs by western blot analysis; type: cell-based
4T1 [22] = test: Antitumor activity against female BALB/c mouse xenografted with 4T1 cells assessed as tumor growth inhibition at 60 mg/kg, ip administered daily for 12 days relative to control; type: functional; details: 4T1, 288 h, time 12 day, read-out: TGI

T1 sequence (P08238 whole entry, other chains not shown): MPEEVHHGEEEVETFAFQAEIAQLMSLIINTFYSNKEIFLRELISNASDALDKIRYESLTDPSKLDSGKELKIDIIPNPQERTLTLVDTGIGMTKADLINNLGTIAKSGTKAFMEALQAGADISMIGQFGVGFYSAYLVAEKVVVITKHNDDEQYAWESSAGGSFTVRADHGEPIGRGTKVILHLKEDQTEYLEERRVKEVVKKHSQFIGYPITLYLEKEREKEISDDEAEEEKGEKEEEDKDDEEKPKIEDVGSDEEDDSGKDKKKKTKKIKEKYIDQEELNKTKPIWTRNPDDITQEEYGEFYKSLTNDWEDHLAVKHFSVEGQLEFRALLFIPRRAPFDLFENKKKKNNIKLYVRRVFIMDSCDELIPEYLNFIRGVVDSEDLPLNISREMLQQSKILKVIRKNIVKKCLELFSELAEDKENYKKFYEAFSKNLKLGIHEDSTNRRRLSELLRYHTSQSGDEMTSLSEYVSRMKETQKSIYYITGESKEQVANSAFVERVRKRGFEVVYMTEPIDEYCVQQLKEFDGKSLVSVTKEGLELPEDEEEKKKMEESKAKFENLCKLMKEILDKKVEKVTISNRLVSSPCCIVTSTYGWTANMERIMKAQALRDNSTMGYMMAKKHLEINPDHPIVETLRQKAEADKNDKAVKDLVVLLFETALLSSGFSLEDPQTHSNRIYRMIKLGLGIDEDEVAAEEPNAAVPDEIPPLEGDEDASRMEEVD
T1 sequence (Q96SW2 whole entry, other chains not shown): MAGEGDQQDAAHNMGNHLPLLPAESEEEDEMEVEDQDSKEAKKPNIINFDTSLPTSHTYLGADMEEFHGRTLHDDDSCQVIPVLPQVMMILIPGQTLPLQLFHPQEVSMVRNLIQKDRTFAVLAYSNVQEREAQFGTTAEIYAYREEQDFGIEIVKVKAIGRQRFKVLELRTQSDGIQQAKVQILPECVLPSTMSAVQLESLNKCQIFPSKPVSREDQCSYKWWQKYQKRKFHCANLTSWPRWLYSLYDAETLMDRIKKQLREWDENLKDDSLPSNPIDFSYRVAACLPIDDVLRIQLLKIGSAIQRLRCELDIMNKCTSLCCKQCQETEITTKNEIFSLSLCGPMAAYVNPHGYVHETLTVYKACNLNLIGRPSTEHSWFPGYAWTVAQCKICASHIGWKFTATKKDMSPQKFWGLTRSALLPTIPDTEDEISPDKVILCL

COc1cc(C(=O)NCCC#Cc2cn(Cc3ncc(C)c(OC)c3C)c3nc(N)nc(Cl)c23)ccc1NC(=O)[C@@H]1N[C@@H](CC(C)(C)C)[C@](C#N)(c2ccc(Cl)cc2F)[C@H]1c1cccc(Cl)c1F
IC50 (MDA-MB-231): > 100 µM | IC50 (MCF7 [1]): 37.9 µM

Nc1cccc2c1C(=O)N(C1CCC(=O)NC1=O)C2=O (configuration not stated) [POMALIDOMIDE]
IC50 (MDA-MB-231): > 100 µM | IC50 (MCF7 [1]): > 100 µM

COc1cc(C(=O)NCCOCCOCCOCC#Cc2cn(Cc3ncc(C)c(OC)c3C)c3nc(N)nc(Cl)c23)ccc1NC(=O)[C@@H]1N[C@@H](CC(C)(C)C)[C@](C#N)(c2ccc(Cl)cc2F)[C@H]1c1cccc(Cl)c1F
IC50 (MDA-MB-231): > 100 µM | IC50 (MCF7 [1]): > 100 µM

COc1cc(C(=O)NCCOCCOCC#Cc2cn(Cc3ncc(C)c(OC)c3C)c3nc(N)nc(Cl)c23)ccc1NC(=O)[C@@H]1N[C@@H](CC(C)(C)C)[C@](C#N)(c2ccc(Cl)cc2F)[C@H]1c1cccc(Cl)c1F
IC50 (MDA-MB-231): 72.1 µM | IC50 (MCF7 [1]): 32.9 µM

COc1c(C)cnc(Cn2cc(C#CCCCCNc3cccc4c3C(=O)N(C3CCC(=O)NC3=O)C4=O)c3c(Cl)nc(N)nc32)c1C (configuration not stated)
IC50 (MDA-MB-231): 2.2 µM | IC50 (MCF7 [1]): 0.25 µM

COc1cc(C(=O)NCC#Cc2cn(Cc3ncc(C)c(OC)c3C)c3nc(N)nc(Cl)c23)ccc1NC(=O)[C@@H]1N[C@@H](CC(C)(C)C)[C@](C#N)(c2ccc(Cl)cc2F)[C@H]1c1cccc(Cl)c1F
IC50 (MDA-MB-231): > 100 µM | IC50 (MCF7 [1]): 20.9 µM

COc1c(C)cnc(Cn2cc(C#CCOCCOCCNc3cccc4c3C(=O)N(C3CCC(=O)NC3=O)C4=O)c3c(Cl)nc(N)nc32)c1C (configuration not stated)
IC50 (MDA-MB-231): 0.76 µM | IC50 (MCF7 [1]): 0.98 µM

COc1cc(C(=O)NCCCC#Cc2cn(Cc3ncc(C)c(OC)c3C)c3nc(N)nc(Cl)c23)ccc1NC(=O)[C@@H]1N[C@@H](CC(C)(C)C)[C@](C#N)(c2ccc(Cl)cc2F)[C@H]1c1cccc(Cl)c1F
IC50 (MDA-MB-231): > 100 µM | IC50 (MCF7 [1]): 97.3 µM

COc1c(C)cnc(Cn2cc(C#CCOCCOCCOCCOCCOCCOCCNc3cccc4c3C(=O)N(C3CCC(=O)NC3=O)C4=O)c3c(Cl)nc(N)nc32)c1C (configuration not stated)
IC50 (MDA-MB-231): 3.88 µM | IC50 (MCF7 [1]): 3.14 µM

COc1c(C)cnc(Cn2cc(C#CCCNc3cccc4c3C(=O)N(C3CCC(=O)NC3=O)C4=O)c3c(Cl)nc(N)nc32)c1C (configuration not stated)
IC50 (MDA-MB-468): 2.95 µM | Activity [2]: Non-Toxic | Activity (4T1 [3]): Active | Cmax [4]: 260 ng/mL | AUC [5]: 1360 ng·h/mL | half-life [6]: 4.5 h | Activity [7]: Active | Activity (MCF7 [8]): Dde | Activity [9]: Active | Activity [10]: Active | IC50 (MDA-MB-231): 3.53 µM | IC50 (MCF7 [1]): 0.63 µM | Emax [11]: 83.4% | Activity [12]: Active | IC50 (4T1 [13]): 0.61 µM | AUC [14]: 2080 ng·h/mL | Tmax [15]: 1.85 h | Activity [16]: 19.7% | Activity [17]: Active | Kd (Heat shock protein HSP90): 1.18 10^-4M | DC50 [18]: 0.99 µM | Activity (4T1 [19]): Active | inhibition in vivo at 40 mg/kg (4T1 [20]): 76.4% | Activity [21]: Active

COc1c(C)cnc(Cn2cc(C#CCCNc3cccc4c3C(=O)N(C3CCC(=O)N(C)C3=O)C4=O)c3c(Cl)nc(N)nc32)c1C (configuration not stated)
IC50 (MDA-MB-231): 7.77 µM | IC50 (MCF7 [1]): 2.46 µM

COc1c(C)cnc(Cn2cnc3c(Cl)nc(N)nc32)c1C [BIIB021]
IC50 (MDA-MB-468): 2.52 µM | Activity (MCF7 [8]): Dde | IC50 (MDA-MB-231): 7.72 µM | IC50 (MCF7 [1]): 1.12 µM | IC50 (4T1 [13]): 0.55 µM | inhibition in vivo at 60 mg/kg (4T1 [22]): 31.8%

COc1cc(C(=O)NCCOCCOCCOCCOCCOCC#Cc2cn(Cc3ncc(C)c(OC)c3C)c3nc(N)nc(Cl)c23)ccc1NC(=O)[C@@H]1N[C@@H](CC(C)(C)C)[C@](C#N)(c2ccc(Cl)cc2F)[C@H]1c1cccc(Cl)c1F
IC50 (MDA-MB-231): > 100 µM | IC50 (MCF7 [1]): > 100 µM

COc1c(C)cnc(Cn2cc(C#CCOCCOCCOCCNc3cccc4c3C(=O)N(C3CCC(=O)NC3=O)C4=O)c3c(Cl)nc(N)nc32)c1C (configuration not stated)
IC50 (MDA-MB-231): 4.85 µM | IC50 (MCF7 [1]): 2.24 µM

COc1cc(C(=O)NCCOCC#Cc2cn(Cc3ncc(C)c(OC)c3C)c3nc(N)nc(Cl)c23)ccc1NC(=O)[C@@H]1N[C@@H](CC(C)(C)C)[C@](C#N)(c2ccc(Cl)cc2F)[C@H]1c1cccc(Cl)c1F
IC50 (MDA-MB-231): 65.9 µM | IC50 (MCF7 [1]): 71.7 µM

COc1cc(C(=O)NCCOCCOCCOCCOCC#Cc2cn(Cc3ncc(C)c(OC)c3C)c3nc(N)nc(Cl)c23)ccc1NC(=O)[C@@H]1N[C@@H](CC(C)(C)C)[C@](C#N)(c2ccc(Cl)cc2F)[C@H]1c1cccc(Cl)c1F
IC50 (MDA-MB-231): > 100 µM | IC50 (MCF7 [1]): > 100 µM

COc1c(C)cnc(Cn2cc(C#CCOCCOCCOCCOCCOCCNc3cccc4c3C(=O)N(C3CCC(=O)NC3=O)C4=O)c3c(Cl)nc(N)nc32)c1C (configuration not stated)
IC50 (MDA-MB-231): 3.87 µM | IC50 (MCF7 [1]): 5.63 µM

COc1c(C)cnc(Cn2cc(C#CCNc3cccc4c3C(=O)N(C3CCC(=O)NC3=O)C4=O)c3c(Cl)nc(N)nc32)c1C (configuration not stated)
IC50 (MDA-MB-231): 20.6 µM | IC50 (MCF7 [1]): 1.98 µM

COc1cc(C(=O)NCCCCC#Cc2cn(Cc3ncc(C)c(OC)c3C)c3nc(N)nc(Cl)c23)ccc1NC(=O)[C@@H]1N[C@@H](CC(C)(C)C)[C@](C#N)(c2ccc(Cl)cc2F)[C@H]1c1cccc(Cl)c1F
IC50 (MDA-MB-231): > 100 µM | IC50 (MCF7 [1]): > 100 µM

COc1c(C)cnc(Cn2cc(C#CCCCNc3cccc4c3C(=O)N(C3CCC(=O)NC3=O)C4=O)c3c(Cl)nc(N)nc32)c1C (configuration not stated)
IC50 (MDA-MB-231): 5.2 µM | IC50 (MCF7 [1]): 1.45 µM

COc1c(C)cnc(Cn2cc(C#CCOCCOCCOCCOCCNc3cccc4c3C(=O)N(C3CCC(=O)NC3=O)C4=O)c3c(Cl)nc(N)nc32)c1C (configuration not stated)
IC50 (MDA-MB-231): 9.48 µM | IC50 (MCF7 [1]): 6.12 µM

COc1cc(C(=O)NCCOCCOCCOCCOCCOCCOCC#Cc2cn(Cc3ncc(C)c(OC)c3C)c3nc(N)nc(Cl)c23)ccc1NC(=O)[C@@H]1N[C@@H](CC(C)(C)C)[C@](C#N)(c2ccc(Cl)cc2F)[C@H]1c1cccc(Cl)c1F
IC50 (MDA-MB-231): > 100 µM | IC50 (MCF7 [1]): > 100 µM

COc1c(C)cnc(Cn2cc(C#CCOCCNc3cccc4c3C(=O)N(C3CCC(=O)NC3=O)C4=O)c3c(Cl)nc(N)nc32)c1C (configuration not stated)
IC50 (MDA-MB-231): 0.44 µM | IC50 (MCF7 [1]): 0.19 µM

Reference: ChEMBL document CHEMBL5154662, “Discovery of BP3 as an efficacious proteolysis targeting chimera (PROTAC) degrader of HSP90 for treating breast cancer” (Eur J Med Chem, 2022)
